pEC50: −log10 of the molar value. Values after ≈ are worked out from the molar mass of the structure shown. Blank lines part the entries; values can stand above or below the compound they belong to. Active and inactive are the calls of the source. No cut-off for these calls is given here.
Key:
[1] = biological target: T1, Bile acid receptor (Homo sapiens) (UniProt Q96RI1); assay: Agonist activity at human FXR LBD assessed as SRC1 peptide recruitment by FRET assay relative to GW 4064; assay type: functional
T1 sequence (whole entry): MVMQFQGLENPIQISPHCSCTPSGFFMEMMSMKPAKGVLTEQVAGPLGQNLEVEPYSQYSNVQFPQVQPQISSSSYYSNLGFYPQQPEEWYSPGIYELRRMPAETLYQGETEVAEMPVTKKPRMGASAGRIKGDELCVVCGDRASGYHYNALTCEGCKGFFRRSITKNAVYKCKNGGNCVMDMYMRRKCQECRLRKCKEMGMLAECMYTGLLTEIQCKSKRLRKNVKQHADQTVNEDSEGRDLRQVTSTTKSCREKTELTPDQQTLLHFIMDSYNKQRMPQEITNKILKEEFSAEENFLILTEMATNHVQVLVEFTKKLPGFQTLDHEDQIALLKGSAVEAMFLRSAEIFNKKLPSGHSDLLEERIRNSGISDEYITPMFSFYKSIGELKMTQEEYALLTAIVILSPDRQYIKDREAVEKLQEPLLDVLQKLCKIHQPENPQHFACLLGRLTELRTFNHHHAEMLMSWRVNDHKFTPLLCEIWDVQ

[2] = biological target: T1, Bile acid receptor (Homo sapiens); assay: Agonist activity at human FXR LBD iexpressed in monkey CV-1 cells assessed as transactivation of luciferase reporter gene expression relative to GW 4064; assay type: functional, cell-based; parameters: concentration or dose not given beside the values
[3] = biological target: T2, Bile acid receptor (Homo sapiens, UniProt Q96RI1); assay: Agonist activity at human FXR LBD assessed as SRC1 peptide recruitment by FRET assay; assay type: functional
T2 sequence (Q96RI1 whole entry): T1 sequence (whole entry)

[4] = biological target: T2, Bile acid receptor; assay: Agonist activity at human FXR LBD iexpressed in monkey CV-1 cells assessed as transactivation of luciferase reporter gene expression; assay type: functional, cell-based
[5] = species on record: Homo sapiens; assay: Selectivity ratio of EC50 for human FXR to EC50 for human LXRalpha
[6] = species on record: Homo sapiens; assay: Selectivity ratio of EC50 for human FXR to EC50 for human PXR
[7] = Solubility of compound in fasted state-simulated intestinal fluid at pH 6.5; assay type: physicochemical; settings: simulated gi fluid
[8] = species on record: Homo sapiens; assay: Selectivity ratio of EC50 for human FXR to EC50 for human LRH
[9] = biological target: T1, Bile acid receptor (Homo sapiens); assay: Binding affinity to human FXR by X-ray crystallography
[10] = species on record: Homo sapiens; assay: Selectivity ratio of EC50 for human FXR to EC50 for human PPARalpha
[11] = species on record: Homo sapiens; assay: Selectivity ratio of EC50 for human FXR to EC50 for human PPARdelta
[12] = species on record: Homo sapiens; assay: Selectivity ratio of EC50 for human FXR to EC50 for human RXRalpha
[13] = system: Rattus norvegicus; assay: Dose normalized AUC in orally dosed rat; assay type: ADME, organism-based; settings: in vivo, po
[14] = system: Cynomolgus monkey; assay: Dose normalized AUC in orally dosed cynomolgus monkey; assay type: ADME, organism-based, Macaca fascicularis; settings: in vivo, po
[15] = species on record: Homo sapiens; assay: Selectivity ratio of EC50 for human FXR to EC50 for human RORalpha
[16] = species on record: Homo sapiens; assay: Selectivity ratio of EC50 for human FXR to EC50 for human LXRbeta
[17] = species on record: Homo sapiens; assay: Selectivity ratio of EC50 for human FXR to EC50 for human PPARgamma
[18] = Half life in iv dosed rat; assay type: ADME, organism-based; settings: in vivo
[19] = Oral bioavailability in cynomolgus monkey; assay type: ADME, organism-based, Macaca fascicularis; settings: in vivo
[20] = Clearance in iv dosed Beagle dog; assay type: ADME, organism-based, Canis lupus familiaris; settings: in vivo
[21] = Oral bioavailability in rat; assay type: ADME, organism-based; settings: in vivo
[22] = system: Mus musculus; assay: Dose normalized AUC in orally dosed mouse; assay type: ADME, organism-based; settings: in vivo, po
[23] = Half life in iv dosed mouse; assay type: ADME, organism-based; settings: in vivo
[24] = Clearance in iv dosed mouse; assay type: ADME, organism-based; settings: in vivo
[25] = Volume of distribution at steady state in iv dosed cynomolgus monkey; assay type: ADME, organism-based, Macaca fascicularis; settings: in vivo, read-out: Vdss
[26] = Oral bioavailability in mouse; assay type: ADME, organism-based; settings: in vivo
[27] = Oral bioavailability in Beagle dog; assay type: ADME, organism-based, Canis lupus familiaris; settings: in vivo
[28] = Volume of distribution at steady state in iv dosed Beagle dog; assay type: ADME, organism-based, Canis lupus familiaris; settings: in vivo, read-out: Vdss
[29] = Clearance in iv dosed cynomolgus monkey; assay type: ADME, organism-based, Macaca fascicularis; settings: in vivo
[30] = Volume of distribution at steady state in iv dosed mouse; assay type: ADME, organism-based; settings: in vivo, read-out: Vdss
[31] = Half life in iv dosed Beagle dog; assay type: ADME, organism-based, Canis lupus familiaris; settings: in vivo
[32] = Volume of distribution at steady state in iv dosed rat; assay type: ADME, organism-based; settings: in vivo, read-out: Vdss
[33] = Clearance in iv dosed rat; assay type: ADME, organism-based; settings: in vivo
[34] = Half life in iv dosed cynomolgus monkey; assay type: ADME, organism-based, Macaca fascicularis; settings: in vivo
[35] = system: Canis familiaris; assay: Dose normalized AUC in orally dosed Beagle dog; assay type: ADME, organism-based, Canis lupus familiaris; settings: in vivo, po

Activity [1]: 113% | Activity [2]: 103% | pEC50 [3]: 7.40 | pEC50 [4]: 7.85
SMILES: CC(C)Oc1cc(C(=O)O)nc2ccc(-c3ccc(OCc4c(-c5c(Cl)cccc5Cl)noc4C(C)C)cc3)cc12

Activity [1]: 107% | Activity [2]: 101% | pEC50 [3]: 6.85 | pEC50 [4]: 7.42
SMILES: Cc1cc2cc(-c3ccc(OCc4c(-c5c(Cl)cccc5Cl)noc4C(C)C)cc3)ccc2nc1C(=O)O

Ratio EC50 [5]: 100 | Activity [1]: 134% | Ratio EC50 [6]: 100 | solubility [7]: 1 ng/mL (≈ 1.88 nM) | Ratio EC50 [8]: 100 | Activity [9]: Active | Activity [2]: 104% | Ratio EC50 [10]: 100 | Ratio EC50 [11]: 100 | Ratio EC50 [12]: 100 | AUC [13]: 23 ng·kg·h/mg/mL | AUC [14]: 1130 ng·kg·h/mg/mL | Ratio EC50 [15]: 100 | Ratio EC50 [16]: 100 | Ratio EC50 [17]: 100
SMILES: CC(C)c1onc(-c2c(Cl)cccc2Cl)c1COc1ccc(-c2ccc3c(C(=O)O)cccc3c2)cc1

Activity [1]: 102% | Activity [2]: 127% | pEC50 [3]: 6.85 | pEC50 [4]: 6.00
SMILES: Cc1nc(C(=O)O)nc2ccc(-c3ccc(OCc4c(-c5c(Cl)cccc5Cl)noc4C(C)C)cc3)cc12

Activity [1]: 87% | Activity [2]: 91% | pEC50 [3]: 6.60 | pEC50 [4]: 7.28
SMILES: Cc1cc(OCc2c(-c3c(Cl)cccc3Cl)noc2C(C)C)ccc1-c1ccc2nc(C(=O)O)ccc2c1

Activity [1]: 113% | Activity [2]: 107% | pEC50 [3]: 7.24 | pEC50 [4]: 7.77
SMILES: COc1cc(C(=O)O)nc2ccc(-c3ccc(OCc4c(-c5c(Cl)cccc5Cl)noc4C(C)C)cc3)cc12

Activity [1]: 106% | Activity [2]: 109% | pEC50 [3]: 7.12 | pEC50 [4]: 7.49
SMILES: CCc1cc(C(=O)O)nc2ccc(-c3ccc(OCc4c(-c5c(Cl)cccc5Cl)noc4C(C)C)cc3)cc12

Activity [1]: 91% | pEC50 [3]: 7.29 | pEC50 [4]: < 5.00
SMILES: CC(C)c1onc(-c2c(Cl)cccc2Cl)c1COc1ccc(-c2ccc3nc(C(=O)O)cc(O)c3c2)cc1

Activity [1]: 105% | Activity [2]: 93% | pEC50 [3]: 7.11 | pEC50 [4]: 7.09
SMILES: CC(C)COc1cc(C(=O)O)nc2ccc(-c3ccc(OCc4c(-c5c(Cl)cccc5Cl)noc4C(C)C)cc3)cc12

Activity [9]: Active
SMILES: CC(C)c1onc(-c2c(Cl)cccc2Cl)c1COc1ccc(/C=C/c2cccc(C(=O)O)c2)c(Cl)c1

half-life [18]: 1.47 h | bioavailability [19]: 2.5% | clearance [20]: 8.2 mL/min/kg | Activity [1]: 83% | bioavailability [21]: 30% | AUC [22]: 36 ng·kg·h/mg/mL | half-life [23]: 4.17 h | clearance [24]: 29 mL/min/kg | Vd [25]: 3.1 L/kg | bioavailability [26]: 6.3% | Activity [9]: Active | Activity [2]: 86% | bioavailability [27]: 15% | Vd [28]: 2 L/kg | pEC50 [3]: 6.92 | clearance [29]: 11 mL/min/kg | Vd [30]: 5.1 L/kg | AUC [13]: 300 ng·kg·h/mg/mL | AUC [14]: 40 ng·kg·h/mg/mL | half-life [31]: 3.83 h | Vd [32]: 1.8 L/kg | clearance [33]: 18 mL/min/kg | half-life [34]: 10.3 h | pEC50 [4]: 7.11 | AUC [35]: 320 ng·kg·h/mg/mL
SMILES: CC(C)c1onc(-c2c(Cl)cccc2Cl)c1COc1ccc(-c2ccc3cc(C(=O)O)ncc3c2)cc1

Activity [1]: 96% | Activity [2]: 109% | pEC50 [3]: 6.82 | pEC50 [4]: 6.16
SMILES: CC(C)c1onc(-c2c(Cl)cccc2Cl)c1COc1ccc(-c2ccc3nc(C(=O)O)cnc3c2)cc1

Activity [1]: 113% | Activity [2]: 93% | pEC50 [3]: 7.23 | pEC50 [4]: 7.66
SMILES: CCCOc1cc(C(=O)O)nc2ccc(-c3ccc(OCc4c(-c5c(Cl)cccc5Cl)noc4C(C)C)cc3)cc12

Activity [1]: 100% | Activity [2]: 94% | pEC50 [3]: 6.96 | pEC50 [4]: 7.36
SMILES: Cc1cc(-c2ccc3nc(C(=O)O)ccc3c2)ccc1OCc1c(-c2c(Cl)cccc2Cl)noc1C(C)C

Activity [1]: 115% | Activity [2]: 107% | pEC50 [3]: 6.62 | pEC50 [4]: 6.96
SMILES: CC(C)c1onc(-c2c(Cl)cccc2Cl)c1COc1ccc(-c2cc3ccc(C(=O)O)nc3cc2F)cc1

Activity [1]: 92% | Activity [2]: 102% | pEC50 [3]: 6.42 | pEC50 [4]: 6.72
SMILES: CC(C)c1onc(-c2c(Cl)cccc2Cl)c1COc1ccc(-c2ccc3c(C(=O)O)nccc3c2)cc1

Activity [1]: 87% | Activity [2]: 88% | pEC50 [3]: 6.70 | pEC50 [4]: 6.59
SMILES: CC(C)c1onc(-c2c(Cl)cccc2Cl)c1COc1ccc(-c2ccc3cc(C(=O)O)cnc3c2)cc1

Activity [1]: 100% | pEC50 [3]: 6.44 | pEC50 [4]: < 5.00
SMILES: CC(C)c1onc(-c2c(Cl)cccc2Cl)c1COc1ccc(-c2ccc3nc(C(=O)O)nnc3c2)cc1

Activity [1]: 99% | Activity [2]: 85% | pEC50 [3]: 6.47 | pEC50 [4]: 6.25
SMILES: CC(C)c1onc(-c2c(Cl)cccc2Cl)c1COc1ccc(-c2ccc3c(C(=O)O)ccnc3c2)cc1

Activity [1]: 99% | Activity [2]: 84% | pEC50 [3]: 7.28 | pEC50 [4]: 7.85
SMILES: CCOc1cc(C(=O)O)nc2ccc(-c3ccc(OCc4c(-c5c(Cl)cccc5Cl)noc4C(C)C)cc3)cc12

Activity [1]: 108% | Activity [2]: 107% | pEC50 [3]: 7.09 | pEC50 [4]: 7.62
SMILES: Cc1cc(C(=O)O)nc2ccc(-c3ccc(OCc4c(-c5c(Cl)cccc5Cl)noc4C(C)C)cc3)cc12

— ChEMBL document CHEMBL1671792, “Conformationally constrained farnesoid X receptor (FXR) agonists: heteroaryl replacements of the naphthalene” (Bioorg Med Chem Lett, 2011)
